According to the NIST ThermoML archive (doi:10.1016/j.fluid.2006.12.011):

What was measured:
[1] = Liquid, Vibrating tube method
[2] = xn = mol fraction of the nth substance listed; conditions: Liquid, Vibrating tube method, x2 = 0

C1CC[C@H]2CCCC[C@H]2C1 [cis-decahydronaphthalene]
mass density [kg/m3], [1]
Conditions	303.15 K	323.15 K	343.15 K
100 kPa	888.5	873.2	857.8
5000 kPa	891.4	876.5	861.5
10000 kPa	894.4	879.8	865.1
15000 kPa	897.3	883	868.6
20000 kPa	899.9	886	871.9
25000 kPa	902.8	889	875.1
30000 kPa	905.5	891.8	878.3
35000 kPa	908	894.6	881.2
40000 kPa	910.6	897.3	884.1
45000 kPa	913	899.9	887
50000 kPa	915.3	902.4	889.7
55000 kPa	917.6	904.8	892.3
60000 kPa	919.9	907.3	894.9
65000 kPa	922.1	909.6	897.4

C1CC[C@H]2CCCC[C@@H]2C1 [trans-decahydronaphthalene]
mass density [kg/m3], [1]
Conditions	303.15 K	323.15 K	343.15 K
100 kPa	862.1	847.1	832
5000 kPa	865.4	850.9	836.2
10000 kPa	868.7	854.4	840.1
15000 kPa	871.6	857.8	843.9
20000 kPa	874.6	861	847.4
25000 kPa	877.6	864.1	850.8
30000 kPa	880.3	867.1	854.1
35000 kPa	882.9	870	857.2
40000 kPa	885.6	872.8	860.3
45000 kPa	888.2	875.6	863.2
50000 kPa	890.6	878.3	866.1
55000 kPa	893	880.8	868.8
60000 kPa	895.3	883.4	871.5
65000 kPa	897.6	885.8	874.2

C1CC[C@H]2CCCC[C@@H]2C1 [trans-decahydronaphthalene] + C1CC[C@H]2CCCC[C@H]2C1
mass density [kg/m3], [2]
Conditions	303.15 K	323.15 K	343.15 K
100 kPa	862.1	847.1	832
5000 kPa	865.4	850.9	836.2
10000 kPa	868.7	854.4	840.1
15000 kPa	871.6	857.8	843.9
20000 kPa	874.6	861	847.4
25000 kPa	877.6	864.1	850.8
30000 kPa	880.3	867.1	854.1
35000 kPa	882.9	870	857.2
40000 kPa	885.6	872.8	860.3
45000 kPa	888.2	875.6	863.2
50000 kPa	890.6	878.3	866.1
55000 kPa	893	880.8	868.8
60000 kPa	895.3	883.4	871.5
65000 kPa	897.6	885.8	874.2
